Measurements taken from PMC12175168, “Refining the Amino Reactivity-Based Identification of Respiratory Sensitizers” (Chemical Research in Toxicology, 2025).
“And” between values parts separate entries of the source, which are not always exact repeats. Identical values can stand only once. “Also recorded” adds a separate entry of the source.

Columns and labels:
[1] = ref Krutz et al., Sadekar et al., Ponder et al., Karol et al., Hopkins et al.; cited from earlier work
[2] = DPRA-like chemoassay with Lys-pNA (24 h percent depletion); details: 25 °C, 50-fold excess of test compound
Method: (§1) In addition to the kinetic Gly-pNA chemoassay, the reactivity of the 27 compounds toward Gly-pNA and Lys-pNA was determined in terms of percentage depletions after reacting for 24 h at 25 °C employing the following DPRA-like setup: stock solutions for the test compounds were prepared by gravimetrically adding at least 3 mg of the respective compound into a glass vial (total volume 1.8 mL) and subsequent addition of 1 mL ACN. […] The stock solutions for Gly-pNA and Lys-pNA with a final concentration of 1.7 mM were prepared by dissolving the required amount in one of the three aqueous buffer solutions used for this DPRA-like chemoassay: phosphate buffer (80 mM, pH 7.4), phosphate buffer (80 mM, pH 10.2), and ammonium acetate buffer (100 mM, pH 10.2). Glass vials (1.8 mL) were used as reaction vessels.
(§2) In the final reaction mixtures, the concentration of Gly-pNA or Lys-pNA was 0.03 mM, and the test compound was 50 times in excess (1.5 mM). After incubation for 24 h at 25 °C, the free amount of either Gly-pNA or Lys-pNA was determined using the HPLC UV–vis method described for the kinetic Gly-pNA chemoassay. , The percentage depletion of Gly-pNA (D Gly) or Lys-pNA (D Lys) was determined directly from peak areas according to eq 3 Dx[%]=(Axcontrol−Ax/Axcontrol×100)withx=GlyorLys
(§3) In eq , A x and A x ^control are the peak areas of the chromatographic signal of either Gly-pNA (x = Gly) or Lys-pNA (x = Lys) at 315 nm after 24 h incubation with and without test compound, respectively.
(§4) Summary of experimental conditions of the DPRA-like setups used to determine
(§5) DGly, D Lys, and D DPRA data in Table 2 (main text).
(§6) Table S2. Overview of experimental conditions for the DPRA-like setups used to
(§7) determine 24 h percentage depletion rates for the reaction of the test compounds with
(§8) Gly-pNA, Lys-pNA, and the DPRA lysine peptide (literature data).

DPRA lysine peptide = test system: DPRA lysine peptide; parameters: method as in literature; details: AAB pH 10.2, 24 h; ref literature; cited from earlier work
[3] = Kinetic Gly-pNA chemoassay (second-order rate constant k Gly); details: reaction with Gly-pNA, nominal test compound concentration; for k Gly ± s(k Gly), second-order rate constant: phosphate buffer 80 mM, 25 °C, ≥ values are minimum reactivity; for log k Gly: phosphate buffer;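 as to all read-outs here: Gly-pNA depletion followed over time by chromatographic peak area, with test compound in at least tenfold excess (pseudo-first-order), added from acetonitrile stock, at least three runs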
Method: The reactivity of the 27 test compounds toward Gly-pNA was quantified in terms of the second-order reaction rate constant k Gly using our Gly-pNA chemoassay. , In brief, stock solutions of the test compound were freshly obtained every day by gravimetrically adding the required amount into a 10 mL volumetric flask, which was subsequently filled to volume with acetonitrile (ACN). The required amounts of test compounds depended on their reactivity toward Gly-pNA. […] As usual for kinetic studies, fast reacting chemicals are applied at lower concentrations than little reactive candidates. All stock solutions were stored at 25 °C in a climate chamber before first use (ca. 30 min) and for repeating an experiment (max. 6 h). Gly-pNA stock solution (1.69 mM) was obtained by dissolving 3.3 mg Gly-pNA in 10 mL phosphate buffer solution (80 mM) and could be used for several weeks if stored at 4 °C. For all chemoassay experiments, 1.8 mL glass vials were used as reaction batches, which were initially filled with 1070 μL phosphate buffer (80 mM) and 30 μL Gly-pNA stock solution. To start the reaction, 400 μL of the test compound stock solutions was added. […] The time between the start of the reaction and the first analysis was measured with an electronic time clock. All reactions were performed under pseudo-1st order conditions with the electrophile being at least ten times in excess over Gly-pNA.
For these compounds, the minimum reactivity was estimated in terms of k Gly by plotting ln (A Gly ^ t /A Gly ^0) vs reaction time t (with A Gly ^ t and A Gly ^0 being the peak areas under the chromatographic signal for Gly-pNA at time t and at the beginning of the reaction (t = 0)). Linear regression through 0 (at t = 0) and the first measurement point yields slope s (see Figure S1) which is the pseudo-1st order rate constant k Gly ^pseudo that can be converted with the initial test compound concentration in the reactions mixture (c) into k Gly according to eq . 1 kGly=kGlypseudo/c
2 Ln(AGlyt/AGly0)≈−kGly·c·t+0.5·kGly·kloss·c·t^2 Here k loss is the first order rate constant covering all processes contributing to the loss of the test compounds, except the reaction with Gly-pNA. The regression parameter of the linear part of eq (= k Gly·c) is the pseudo-1st order rate constant k Gly ^pseudo and can be converted into k Gly according to eq (see above).
Linear regression of these plots provides slope s, which is again the pseudo-1st order rate constant, k Gly ^pseudo, and can be used to calculate k Gly according to eq . All experiments to determine k Gly have been conducted at least three times.

[4] = DPRA-like chemoassay with Gly-pNA (24 h percent depletion); details: PPB pH 7.4, 24 h, 25 °C, 50-fold excess of test compound
Method: as §1, §2, §3, §4, §5, §6, §7, §8

[5] = Stability assessment of test compounds in aqueous buffers (half-lives)
Method: To this end, the test compound was dissolved in 1 mL ACN in a glass vial. […] As reaction batches, 1.8 mL glass vials equipped with 400 μL glass inserts were used and filled with 220 μL of the respective aqueous buffer and 80 μL of the test compound stock solution. The depletion of the test compounds was recorded with the HPLC UV–vis instrument used for the kinetic Gly-pNA chemoassay. , Chromatographic separation of the reaction mixture was achieved using the gradient described for the Gly-pNA chemoassay previously , and an isocratic HPLC method (water/ACN 70:30, both with 0.1 vol % formic acid). The wavelengths used for the detection of the compound and the information on the used chromatographic method are given in the Supporting Information in Table S3.

[6] = AAB (ammonium acetate buffer) pH 10.2, 24 h
[7] = buffer, pH 7.4, half-lives t 1/2 ± s(t 1/2), PPB (phosphate buffer 80 mM) pH 7.4
[8] = buffer, pH 10.2, half-lives t 1/2 ± s(t 1/2), AAP (ammonium acetate buffer 100 mM) pH 10.2
[9] = buffer, pH 10.2, half-lives t 1/2 ± s(t 1/2), PPB (phosphate buffer 80 mM) pH 10.2
[10] = PPB (phosphate buffer 80 mM) pH 7.4
[11] = aqueous ammonium acetate buffer with acetonitrile, pH 10.2
[12] = aqueous phosphate buffer with acetonitrile, pH 7.4
[13] = aqueous phosphate buffer with acetonitrile, pH 10.2

Row | SMILES | Classification as potential respiratory sensitizer or non-sensitizer [1] | D Lys ± s(D Lys), 24 h percent depletion of Lys-pNA [2, 6] | D Lys ± s(D Lys), 24 h percent depletion of Lys-pNA ([2]; PPB pH 10.2, 24 h) | D DPRA ± s(D DPRA), depletion of the DPRA lysine peptide (DPRA lysine peptide) | k Gly ± s(k Gly), second-order rate constant [3] | log k Gly [3] | D Gly ± s(D Gly), 24 h percent depletion of Gly-pNA [4] | half-life [5, 7] | half-life [5, 8] | half-life [5, 9] | half-lives t 1/2 ± s(t 1/2) [5, 10] | half-life [5, 11] | half-life [5, 12] | half-life [5, 13] | k Gly ± s(k Gly), second-order rate constant ([3]; listed as himic anhydride) | half-lives t 1/2 ± s(t 1/2) ([5]; AAP (ammonium acetate buffer 100 mM) pH 10.2) | half-lives t 1/2 ± s(t 1/2) ([5]; PPB (phosphate buffer 80 mM) pH 10.2)
1 | Cc1c(N=C=O)cccc1N=C=O [A3, 2,6-toluene diisocyanate] | potential respiratory sensitizer | 20.7 ± 1.4% | 100% | 26.5 ± 0.7% | ≥20880 ± 695 L mol^–1 min^–1 | ≥4.32 | 100% | < 1 min | < 1 min | < 1 min | – | – | – | – | – | – | –
2 | O=C=Nc1ccc(Cc2ccc(N=C=O)cc2)cc1 [A4, 4,4′-methylene diphenyl diisocyanate] | potential respiratory sensitizer | 22.9 ± 4.4% | 100% | 23.0 ± 6.2% | ≥20015 ± 4486 L mol^–1 min^–1 | – | 100% | 5.9 ± 1 min | < 1 min | 4.6 ± 0.3 min | – | – | – | – | – | – | –
3 | O=C=Nc1ccccc1 [A5, phenyl isocyanate] | potential respiratory sensitizer | 10.2 ± 0.7% | 100% | 48.4 ± 1.1% | ≥2368 ± 309 L mol^–1 min^–1 | ≥3.37 | 100% | < 1 min | < 1 min | < 1 min | – | – | – | – | – | – | –
4 | O=C=NCCCCCCN=C=O [B1, hexamethylene diisocyanate] | potential respiratory sensitizer | 23.3 ± 0.3% | 98.7 ± 2.2% | 41.6 ± 7.3% | 451 ± 33 L mol^–1 min^–1 | 2.65 | 100% | – | – | – | – | – | – | – | – | – | –
5 | CC1(C)CC(N=C=O)CC(C)(CN=C=O)C1 (stereo not shown) [B2, isophorone diisocyanate] | potential respiratory sensitizer | 21.5 ± 0.3% | 100% | 28.0% | 256 ± 6 L mol^–1 min^–1 | 2.41 | 100% | – | – | – | – | – | – | – | – | – | –
6 | O=C1OC2(c3ccc(O)cc3Oc3cc(O)ccc32)c2ccc(N=C=S)cc21 [B3, fluorescein isothiocyanate] | potential respiratory sensitizer | 56.5 ± 0.3% | 100% | 61.1% | 15.1 ± 2.6 L mol^–1 min^–1 | – | 100% | – | 8.21 ± 0.18 min | 3500 ± 236 min | no depletion | – | – | – | – | – | –
7 | O=C1OC(=O)c2ccccc21 [C1, phthalic anhydride] | potential respiratory sensitizer | 22.6 ± 7.4% | 100% | 69.2 ± 22.0% | ≥22480 ± 1197 L mol^–1 min^–1 | – | 100% | – | – | – | – | < 1 min | 89.5 ± 4.1 min | < 1 min | – | – | –
8 | O=C(O)c1ccc2c(c1)C(=O)OC2=O [C2, trimellitic anhydride] | potential respiratory sensitizer | 15.2 ± 0.6% | 100% | 59.9 ± 22.0% | ≥22271 ± 1975 L mol^–1 min^–1 | 4.35 | 100% | – | – | – | – | < 1 min | 110 ± 10 min | 1 min | – | – | –
9 | O=C1OC(=O)c2c(Cl)c(Cl)c(Cl)c(Cl)c21 [C3, tetrachlorophthalic anhydride] | potential respiratory sensitizer | 11.5 ± 1.8% | 99.2 ± 0.7% | 83.5 ± 0.7% | ≥9816 ± 858 L mol^–1 min^–1 | 3.99 | 100% | 24.3 ± 0.6 min | < 1 min | < 1 min | – | – | – | – | – | – | –
10 | O=C1OC(=O)C2C3C=CC(C3)C12 (stereo not shown) [C5, himic anhydride] | potential respiratory sensitizer | 29.6 ± 0.3% | 98.9 ± 0.1% | – | 4126 ± 114 L mol^–1 min^–1 | 3.62 | 100% | – | – | – | – | < 1 min | 6.79 ± 0.13 min | 1.3 ± 0.41 min | 4126 L mol^–1 min^–1 | – | –
11 | O=C1OC(=O)C2CCCCC12 (stereo not shown) [D1, hexahydrophthalic anhydride] | potential respiratory sensitizer | 12.5 ± 0.5% | 100% | 56.4 ± 29.4% | 2900 ± 110 L mol^–1 min^–1 | 3.46 | 100% | – | – | – | – | < 1 min | 4.36 ± 0.36 min | 1.2 min | – | – | –
12 | CC12CC=CCC1C(=O)OC2=O (stereo not shown) [D2, methyltetrahydrophthalic anhydride] | potential respiratory sensitizer | 18.0 ± 0.9% | 100% | – | 2051 ± 32 L mol^–1 min^–1 | 3.31 | 100% | 2.24 ± 0.03 min | < 1 min | < 1 min | – | – | – | – | – | – | –
13 | O=[N+]([O-])c1ccc(F)c([N+](=O)[O-])c1 [E3, 1-fluoro-2,4-dinitrobenzene] | non-sensitizer | 84.0 ± 3.3% | 100% | – | 3.95 ± 0.07 L mol^–1 min^–1 | 0.6 | 72.7% and 72.7 ± 0.7% | – | 73.2 ± 9.7 min | 615 ± 31 min | no depletion | – | – | – | – | – | –
14 | O=[N+]([O-])c1ccc(Cl)c([N+](=O)[O-])c1 [E4, 1-chloro-2,4-dinitrobenzene] | non-sensitizer | 5.0 ± 0.7% | 8.1 ± 0.5% | 21.1 ± 16.3% | – | –2.20 | – | – | – | – | no depletion | – | – | – | – | did not show any significant signal depletion; also recorded: no depletion | no depletion
